# Biological target: Peptidyl-prolyl cis-trans isomerase A, cyclophilin A (Homo sapiens) (UniProt P62937)
# Experiment: The compound was tested for inhibition of […] isomerase (PPIase).
# Chain of Peptidyl-prolyl cis-trans isomerase A, cyclophilin A (Homo sapiens) (P62937 whole entry, looked up): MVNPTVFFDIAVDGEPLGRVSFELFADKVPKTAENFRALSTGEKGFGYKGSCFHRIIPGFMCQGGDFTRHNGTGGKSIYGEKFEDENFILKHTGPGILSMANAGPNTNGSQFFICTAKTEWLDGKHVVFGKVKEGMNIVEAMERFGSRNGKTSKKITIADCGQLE
row,Ki [nM],SMILES
1,6,"C/C=C/CC(C)[C@@H](O)[C@H]1C(=O)N[C@@H](CC)C(=O)N(C)CC(=O)N(C)[C@@H](CC(C)C)C(=O)N[C@@H](C(C)C)C(=O)N(C)[C@H](CC(C)C)C(=O)N[C@H](Cc2ccccc2)C(=O)N[C@@H](CO)C(=O)N(C)[C@H](CC(C)C)C(=O)N(C)[C@@H](CC(C)C)C(=O)N(C)[C@H](C(C)C)C(=O)N1C (stereo partly drawn) [15-Benzyl-30-ethyl-12-hydroxymethyl-33-(1-hydroxy-2-methyl-hex-4-enyl)-6,9,18,24-tetraisobutyl-3,21-diisopropyl-1,4,7,10,19,25,28-heptamethyl-1,4,7,10,13,16,19,22,25,28,31undecaaza-cyclotritriacontan-2,5,8,11,14,17,20,23,26,29,32-undecaone]"
2,6,"C/C=C/CC(C)C(O)[C@H]1C(=O)N[C@@H](CC)C(=O)N(C)[C@H](C)C(=O)N(C)[C@@H](CC(C)C)C(=O)N[C@@H](C(C)C)C(=O)N(C)[C@H](CC(C)C)C(=O)N[C@H](Cc2ccccc2)C(=O)N[C@H](C)C(=O)N(C)[C@H](CC(C)C)C(=O)N(C)[C@@H](CC(C)C)C(=O)N(C)[C@H](C(C)C)C(=O)N1C (stereo partly drawn) [15-Benzyl-30-ethyl-33-(1-hydroxy-2-methyl-hex-4-enyl)-6,9,18,24-tetraisobutyl-3,21-diisopropyl-1,4,7,10,12,19,25,27,28-nonamethyl-1,4,7,10,13,16,19,22,25,28,31undecaaza-cyclotritriacontan-2,5,8,11,14,17,20,23,26,29,32-undecaone]"
3,33,"C/C=C/CC(C)[C@@H](O)[C@H]1C(=O)N[C@@H](CC)C(=O)N(C)CC(=O)N(C)[C@@H](CC(C)C)C(=O)N[C@@H](C(C)C)C(=O)N(C)[C@H](CC(C)C)C(=O)N[C@H](Cc2ccccc2)C(=O)N[C@H](C)C(=O)N(C)[C@H](CC(C)C)C(=O)N(C)[C@@H](CC(C)C)C(=O)N(C)[C@H](C(C)C)C(=O)N1C (stereo partly drawn) [15-Benzyl-30-ethyl-33-(1-hydroxy-2-methyl-hex-4-enyl)-6,9,18,24-tetraisobutyl-3,21-diisopropyl-1,4,7,10,12,19,25,28-octamethyl-1,4,7,10,13,16,19,22,25,28,31undecaaza-cyclotritriacontan-2,5,8,11,14,17,20,23,26,29,32-undecaone]"

# From BindingDB's records for doi:10.1021/jm00021a005 (University of Wisconsin-Madison, 1995)
